# Test system: barnyardgrass (Ec)
# Assay: Test Example 1: herbicidal effects by paddy field soil treatment;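 further: grade of growth control; 5 = at least 90%; 4 = 70 to 90%; 3 = 50 to 70%; 2 = 30 to 50%; 1 = 10 to 30%; 0 = under 10%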
# Format: in vivo
# Settings: 100 g of the active ingredient per 10 ares, 21st day after the application, index 0-5 of Table 47
# Outline: (§1)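 Flooded paddy-soil pots (3 cm water) sown after puddling/leveling; treatment 100 g a.i./10 ares; greenhouse culture; herbicidal effect rated visually on a scoring scale at 21 d post-application.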
row,SMILES,Herbicidal effects Ec
1,COCCOc1cc(-c2ccc(C(F)(F)F)n(C)c2=O)c(F)cc1Cl [1-170],5

# Test system: bulrush (Sc)
# Assay: as above
# Format: in vivo
# Settings: 100 g of the active ingredient per 10 ares, 21st day after the application, index 0-5 of Table 47
# Outline: as §1
row,SMILES,Herbicidal effects Sc
1,COCCOc1cc(-c2ccc(C(F)(F)F)n(C)c2=O)c(F)cc1Cl [1-170],5

# Test system: monochoria (Mo)
# Assay: as above
# Format: in vivo
# Settings: 100 g of the active ingredient per 10 ares, 21st day after the application, index 0-5 of Table 47
# Outline: as §1
row,SMILES,Herbicidal effects Mo
1,COCCOc1cc(-c2ccc(C(F)(F)F)n(C)c2=O)c(F)cc1Cl [1-170],5

# Test system: Digitaria ciliaris (Di)
# Assay: Test Example 2: herbicidal effects by upland field soil treatment;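 further: grade of growth control; 5 = at least 90%; 4 = 70 to 90%; 3 = 50 to 70%; 2 = 30 to 50%; 1 = 10 to 30%; 0 = under 10%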
# Format: in vivo
# Settings: 100 g of the active ingredient per 10 ares, evaluated on the 21st day after application
# Excerpt: (§2) (Test on Herbicidal Effects by Upland Field Soil Treatment)
row,SMILES,Herbicidal effects Di
1,COCCOc1cc(-c2ccc(C(F)(F)F)n(C)c2=O)c(F)cc1Cl [1-170],5

# Test system: barnyardgrass (Ec)
# Assay: as above
# Format: in vivo
# Settings: 100 g of the active ingredient per 10 ares, evaluated on the 21st day after application
# Excerpt: as §2
row,SMILES,Herbicidal effects Ec
1,COCCOc1cc(-c2ccc(C(F)(F)F)n(C)c2=O)c(F)cc1Cl [1-170],5

# Test system: common lambsquarters (Ch)
# Assay: as above
# Format: in vivo
# Settings: 100 g of the active ingredient per 10 ares, evaluated on the 21st day after application
# Excerpt: as §2
row,SMILES,Herbicidal effects Ch
1,COCCOc1cc(-c2ccc(C(F)(F)F)n(C)c2=O)c(F)cc1Cl [1-170],5

# Test system: pale smartweed (Po)
# Assay: as above
# Format: in vivo
# Settings: 100 g of the active ingredient per 10 ares, evaluated on the 21st day after application
# Excerpt: as §2
row,SMILES,Herbicidal effects Po
1,COCCOc1cc(-c2ccc(C(F)(F)F)n(C)c2=O)c(F)cc1Cl [1-170],5

# Test system: rice flatsedge (Ci)
# Assay: as above
# Format: in vivo
# Settings: 100 g of the active ingredient per 10 ares, evaluated on the 21st day after application
# Excerpt: as §2
row,SMILES,Herbicidal effects Ci
1,COCCOc1cc(-c2ccc(C(F)(F)F)n(C)c2=O)c(F)cc1Cl [1-170],5

# Test system: slender amaranth (Am)
# Assay: as above
# Format: in vivo
# Settings: 100 g of the active ingredient per 10 ares, evaluated on the 21st day after application
# Excerpt: as §2
row,SMILES,Herbicidal effects Am
1,COCCOc1cc(-c2ccc(C(F)(F)F)n(C)c2=O)c(F)cc1Cl [1-170],5

# Test system: Diaitaria ciliaris (Di)
# Assay: Test Example 3: herbicidal effects by upland field foliage treatment
# Format: in vivo
# Set-up: scale not given here
# Settings: 100 g of the active ingredient per 10 ares, evaluated on the 14th day after treatment
# Outline: (§3)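 Post-emergence upland foliage test. Seedlings grown 2 weeks under glass in pots (120 cm^2) of sand, seed topped with soil; treated on the foliage, kept in greenhouse, then assessed at day 14 using rating standards.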
row,SMILES,Herbicidal effects Di
1,COCCOc1cc(-c2ccc(C(F)(F)F)n(C)c2=O)c(F)cc1Cl [1-170],5

# Test system: barnyardgrass (Ec)
# Assay: as above
# Format: in vivo
# Set-up: scale not given here
# Settings: 100 g of the active ingredient per 10 ares, evaluated on the 14th day after treatment
# Outline: as §3
row,SMILES,Herbicidal effects Ec
1,COCCOc1cc(-c2ccc(C(F)(F)F)n(C)c2=O)c(F)cc1Cl [1-170],5

# Test system: common lambsquarters (Ch)
# Assay: as above
# Format: in vivo
# Set-up: scale not given here
# Settings: 100 g of the active ingredient per 10 ares, evaluated on the 14th day after treatment
# Outline: as §3
row,SMILES,Herbicidal effects Ch
1,COCCOc1cc(-c2ccc(C(F)(F)F)n(C)c2=O)c(F)cc1Cl [1-170],5

# Test system: pale smartweed (Po)
# Assay: as above
# Format: in vivo
# Set-up: scale not given here
# Settings: 100 g of the active ingredient per 10 ares, evaluated on the 14th day after treatment
# Outline: as §3
row,SMILES,Herbicidal effects Po
1,COCCOc1cc(-c2ccc(C(F)(F)F)n(C)c2=O)c(F)cc1Cl [1-170],5

# Test system: rice flatsedge (Ci)
# Assay: as above
# Format: in vivo
# Set-up: scale not given here
# Settings: 100 g of the active ingredient per 10 ares, evaluated on the 14th day after treatment
# Outline: as §3
row,SMILES,Herbicidal effects Ci
1,COCCOc1cc(-c2ccc(C(F)(F)F)n(C)c2=O)c(F)cc1Cl [1-170],5

# Test system: slender amaranth (Am)
# Assay: as above
# Format: in vivo
# Set-up: scale not given here
# Settings: 100 g of the active ingredient per 10 ares, evaluated on the 14th day after treatment
# Outline: as §3
row,SMILES,Herbicidal effects Am
1,COCCOc1cc(-c2ccc(C(F)(F)F)n(C)c2=O)c(F)cc1Cl [1-170],5

# Test system: cotton (Go)
# Assay: Test Example 4: crop plant selectivity by upland field soil treatment (cotton), phytotoxicity
# Format: in vivo
# Set-up: scale not given here
# Settings: dose 6.3 g ai/10 a, evaluated 21st day after application
# Outline: (§4)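 Upland soil treatment: crop and weed seeds in sand pots under a soil cover, compound applied to soil, greenhouse-grown, rated visually 21 d later.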
row,SMILES,Phytotoxicity Go
1,COCCOc1cc(-c2ccc(C(F)(F)F)n(C)c2=O)c(F)cc1Cl [1-170],1

# Test system: China jute (Ab)
# Assay: Test Example 4: crop plant selectivity by upland field soil treatment (cotton), herbicidal effects
# Format: in vivo
# Set-up: scale not given here
# Settings: dose 6.3 g ai/10 a, evaluated 21st day after application
# Outline: as §4
row,SMILES,Herbicidal effects Ab
1,COCCOc1cc(-c2ccc(C(F)(F)F)n(C)c2=O)c(F)cc1Cl [1-170],5

# Test system: common lambsquarters (Ch)
# Assay: as above
# Format: in vivo
# Set-up: scale not given here
# Settings: dose 6.3 g ai/10 a, evaluated 21st day after application
# Outline: as §4
row,SMILES,Herbicidal effects Ch
1,COCCOc1cc(-c2ccc(C(F)(F)F)n(C)c2=O)c(F)cc1Cl [1-170],5
